{"source": "paper PMC8011931", "about": "“Identification, Structure–Activity Relationship, and Biological Characterization of 2,3,4,5-Tetrahydro-1H-pyrido[4,3-b]indoles as a Novel Class of CFTR Potentiators” (Journal of Medicinal Chemistry, 2020)", "target": "F508del-CFTR (Homo sapiens, UniProt P13569, DEL508-508)", "sequence (P13569 with tags, fused parts or gaps DEL508-508)": "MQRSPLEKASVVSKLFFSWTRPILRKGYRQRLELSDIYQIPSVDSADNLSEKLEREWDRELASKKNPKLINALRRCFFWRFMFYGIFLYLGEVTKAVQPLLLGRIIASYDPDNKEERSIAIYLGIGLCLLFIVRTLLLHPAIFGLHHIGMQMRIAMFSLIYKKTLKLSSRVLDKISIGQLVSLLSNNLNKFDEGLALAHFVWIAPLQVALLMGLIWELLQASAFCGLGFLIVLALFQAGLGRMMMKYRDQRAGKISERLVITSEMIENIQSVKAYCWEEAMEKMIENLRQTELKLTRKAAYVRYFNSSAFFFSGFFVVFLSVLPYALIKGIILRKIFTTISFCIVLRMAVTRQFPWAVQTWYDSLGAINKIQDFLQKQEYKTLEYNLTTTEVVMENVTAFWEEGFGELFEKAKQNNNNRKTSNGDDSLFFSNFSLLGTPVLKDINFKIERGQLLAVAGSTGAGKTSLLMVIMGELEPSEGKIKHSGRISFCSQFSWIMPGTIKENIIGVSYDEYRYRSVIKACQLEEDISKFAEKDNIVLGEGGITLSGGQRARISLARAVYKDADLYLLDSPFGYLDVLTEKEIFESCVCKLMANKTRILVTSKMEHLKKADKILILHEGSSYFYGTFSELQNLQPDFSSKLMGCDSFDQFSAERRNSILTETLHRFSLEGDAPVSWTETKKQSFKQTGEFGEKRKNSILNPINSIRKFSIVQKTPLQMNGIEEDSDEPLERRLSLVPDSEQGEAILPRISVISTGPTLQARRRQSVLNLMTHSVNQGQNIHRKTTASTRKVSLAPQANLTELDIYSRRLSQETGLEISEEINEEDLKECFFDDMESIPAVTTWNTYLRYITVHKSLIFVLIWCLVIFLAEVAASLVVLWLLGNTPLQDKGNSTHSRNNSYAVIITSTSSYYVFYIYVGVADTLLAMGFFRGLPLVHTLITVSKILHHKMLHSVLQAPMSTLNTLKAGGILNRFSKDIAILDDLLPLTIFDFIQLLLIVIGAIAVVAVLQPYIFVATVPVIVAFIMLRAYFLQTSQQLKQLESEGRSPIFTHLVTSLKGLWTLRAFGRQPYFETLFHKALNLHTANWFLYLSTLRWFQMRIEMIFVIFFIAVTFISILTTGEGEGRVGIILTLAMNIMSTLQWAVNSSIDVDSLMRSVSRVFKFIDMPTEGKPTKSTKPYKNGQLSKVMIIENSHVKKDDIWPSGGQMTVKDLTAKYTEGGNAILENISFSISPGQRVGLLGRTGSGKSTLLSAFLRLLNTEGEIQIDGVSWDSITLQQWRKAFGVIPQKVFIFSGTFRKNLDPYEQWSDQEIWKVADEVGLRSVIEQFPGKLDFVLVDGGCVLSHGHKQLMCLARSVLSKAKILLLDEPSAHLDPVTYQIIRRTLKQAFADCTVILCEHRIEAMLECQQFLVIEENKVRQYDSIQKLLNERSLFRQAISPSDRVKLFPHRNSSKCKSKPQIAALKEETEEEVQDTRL", "test": "24 h co-incubation with correctors, YFP-based functional assay on F508del-CFTR CFBE41o- cells", "format": "cell-based", "design": "expressed in transfected cells", "conditions": "39 5 μM with VX-809 1 μM or ARN23765 10 nM", "procedure": "Recent studies have shown that most potentiators have an undesired activity on F508del-CFTR protein processing/trafficking.[39],[40] According to these studies, chronic incubation with potentiators results in decreased activity of VX-809 as a corrector. To test the effect of our potentiators, we incubated F508del-CFTR CFBE41o-cells for 24 h with tetrahydro-γ-carboline 39 (5 μM) together with VX-809 (1 μM) and ARN23765 (10 nM), the picomolar affinity corrector recently reported by our research team.[35] […]\nPrior assay, cells were washed with phosphate-buffered saline (PBS) containing (in mM) 137 NaCl, 2.7 KCl, 8.1 Na2HPO4, 1.5 KH2PO4, 1 CaCl2, and 0.5 MgCl2. […] Cells were then transferred to microplate readers (FluoStar Optima; BMG Labtech, Offenburg, Germany) for CFTR activity determination. The plate readers were equipped with high-quality excitation (HQ500/20X: 500 ± 10 nm) and emission (HQ535/30M: 535 ± 15 nm) filters for YFP (Chroma Technology). The assay consisted of a continuous 14 s fluorescence reading, 2 s before and 12 s after injection of 165 μL of an iodide-containing solution (PBS with Cl^– replaced by I^–; final I^– concentration 100 mM). Data were normalized to the initial background-subtracted fluorescence. […]", "data": [{"smiles": "Cc1ccc(F)c2[nH]c3c(c12)CN(C(=O)c1cc(C(F)(F)F)[nH]n1)[C@H](C)C3", "note": "[Compound 39, (R)-(6-Fluoro-3,9-dimethyl-1,3,4,5-tetrahydro-2H-pyrido[4,3-b]indol-2-yl)-(5-(trifluoromethyl)-1H-pyrazol-3-yl)methanone]", "values": [{"measurement": "effect on rescue efficacy of VX-809 or ARN23765", "value": "did not affect the rescue efficacy"}]}]}
